ChEMBL document CHEMBL1140633, “The application of 3D-QSAR studies for novel cannabinoid ligands substituted at the C1' position of the alkyl side chain on the structural requirements for binding to cannabinoid receptors CB1 and CB2” (J Med Chem, 2007)
pKi: −log10 of the molar value.

Key:
[1] = molecular target: Cannabinoid receptor 1 (Homo sapiens, UniProt P21554); test: Binding affinity to CB1 receptor
[2] = molecular target: Cannabinoid receptor 2 (Homo sapiens, UniProt P34972); test: Binding affinity to CB2 receptor
Cannabinoid receptor 2, sequence (P34972 whole entry): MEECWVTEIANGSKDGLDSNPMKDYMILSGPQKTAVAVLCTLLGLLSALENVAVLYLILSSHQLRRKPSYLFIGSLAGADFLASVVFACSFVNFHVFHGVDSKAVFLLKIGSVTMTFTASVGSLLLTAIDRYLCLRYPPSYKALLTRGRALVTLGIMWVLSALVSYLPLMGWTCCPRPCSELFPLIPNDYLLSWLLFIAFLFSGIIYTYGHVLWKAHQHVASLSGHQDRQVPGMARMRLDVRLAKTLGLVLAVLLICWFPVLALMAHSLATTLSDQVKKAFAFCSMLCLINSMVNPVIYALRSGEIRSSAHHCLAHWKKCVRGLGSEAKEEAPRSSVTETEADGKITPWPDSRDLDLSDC

Cannabinoid receptor 1, sequence (P21554 whole entry): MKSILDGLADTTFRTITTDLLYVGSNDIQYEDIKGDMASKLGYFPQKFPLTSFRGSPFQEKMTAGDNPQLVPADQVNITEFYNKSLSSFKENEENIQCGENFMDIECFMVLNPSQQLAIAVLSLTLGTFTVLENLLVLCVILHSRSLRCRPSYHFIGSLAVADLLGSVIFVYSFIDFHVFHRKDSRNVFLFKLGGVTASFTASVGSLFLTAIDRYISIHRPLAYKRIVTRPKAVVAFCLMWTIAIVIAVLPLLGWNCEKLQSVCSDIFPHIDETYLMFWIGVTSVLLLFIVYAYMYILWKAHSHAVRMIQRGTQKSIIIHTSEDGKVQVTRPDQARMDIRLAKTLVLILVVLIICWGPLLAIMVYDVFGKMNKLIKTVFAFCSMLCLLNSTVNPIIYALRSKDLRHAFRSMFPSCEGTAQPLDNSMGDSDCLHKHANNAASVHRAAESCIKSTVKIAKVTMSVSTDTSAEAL

Row | SMILES | pKi [1] | pKi [2]
1 | CC1=CC[C@@H]2[C@@H](C1)c1c(O)cc(CCCCCN=[N+]=[N-])cc1OC2(C)C | 7.72 | 
2 | CCCCCCC1(c2cc(O)c3c(c2)OC(C)(C)[C@@H]2CC=C(C)C[C@@H]32)OCCO1 | 9.28 | 9.66
3 | CCCCCCC1(c2cc(O)c3c(c2)OC(C)(C)[C@@H]2CC=C(C)C[C@@H]32)SCCCS1 | 8.74 | 8.44
4 | CCCCCCC1(c2cc(O)c3c(c2)OC(C)(C)[C@@H]2CC=C(C)C[C@@H]32)CCCC1 | 9.35 | 8.72
5 | CC1=CC[C@@H]2[C@@H](C1)c1c(O)cc(C3SCCS3)cc1OC2(C)C | 6.77 | 6.99
6 | CCCCCCC1(c2cc(O)c3c(c2)OC(C)(C)[C@@H]2CC=C(C)C[C@@H]32)CC1(Br)Br (stereo partly specified) | 9.15 | 8.99
7 | CCCCCCC1(c2cc(O)c3c(c2)OC(C)(C)[C@@H]2CC=C(C)C[C@@H]32)CC1(Cl)Cl (stereo partly specified) | 8.90 | 9.54
8 | CC1=CC[C@@H]2[C@@H](C1)c1c(O)cc(C(C)(C)CCCCOc3ccc(C#N)cc3)cc1OC2(C)C | 8.82 | 8.96
9 | CC1=CC[C@@H]2[C@@H](C1)c1c(O)cc(C(C)(C)CCCCC(=O)NN3CCCCC3)cc1OC2(C)C | 8.35 | 8.49
10 | CC1=CC[C@@H]2[C@@H](C1)c1c(O)cc(C(C)(C)CCCCCC#N)cc1OC2(C)C | 9.70 | 8.54
11 | CCCCCCC1(c2cc(O)c3c(c2)OC(C)(C)[C@@H]2CC=C(C)C[C@@H]32)CC1 | 9.36 | 9.07
12 | CC1=CC[C@@H]2[C@@H](C1)c1c(O)cc(C(C)(C)CCCCBr)cc1OC2(C)C | 9.37 | 
13 | CCc1ccc(-c2cc(O)c3c(c2)OC(C)(C)[C@@H]2CC=C(C)C[C@@H]32)cc1 | 6.92 | 7.29
14 | CC1=CC[C@@H]2[C@@H](C1)c1c(O)cc(C3(C#N)CCCCC3)cc1OC2(C)C | 8.08 | 8.41
15 | CCCc1ccc(-c2cc(O)c3c(c2)OC(C)(C)[C@@H]2CC=C(C)C[C@@H]32)cc1 | 7.24 | 6.97
16 | CC1=CC[C@@H]2[C@@H](C1)c1c(O)cc(C3(C#N)CCCC3)cc1OC2(C)C | 7.55 | 7.60
17 | C=C(C)C1CCC(C)=C[C@H]1c1c(O)cc(-c2cccc3ccccc23)cc1O (stereo partly specified) | 6.12 | 6.65
18 | C=C(C)C1CCC(C)=C[C@H]1c1c(O)cc(C2(C#N)CCCC2)cc1O (stereo partly specified) | 6.59 | 6.98
19 | C=C(C)C1CCC(C)=C[C@H]1c1c(O)cc(C2(CCCCCC)CC2(Cl)Cl)cc1O (stereo partly specified) | 6.18 | 7.48
20 | C=C(C)C1CCC(C)=C[C@H]1c1c(O)cc(C2(CCCCCC)SCCS2)cc1O (stereo partly specified) | 6.87 | 7.30
21 | C=C(CCCCCC)c1cc(O)c2c(c1)OC(C)(C)[C@@H]1CC=C(C)C[C@@H]21 | 8.66 | 8.48

Row | SMILES | pKi [1] | pKi [2]
22 | C=C(C)C1CCC(C)=C[C@H]1c1c(O)cc(-c2ccc(C)cc2)cc1O (stereo partly specified) | 6.20 | 6.43
23 | CCCC(C)(C)c1cc(O)c2c(c1)OC(C)(C)[C@@H]1CC=C(C)C[C@@H]21 | 7.96 | 
24 | CCCCCC(C)(C)c1cc(O)c2c(c1)OC(C)(C)[C@@H]1CC=C(C)C[C@@H]21 | 8.57 | 
25 | CC1=CC[C@@H]2[C@@H](C1)c1c(O)cc(CCCC(C)C)cc1OC2(C)C | 6.85 | 
26 | CC1=CC[C@@H]2[C@@H](C1)c1c(O)cc(C(C)(C)C3CCCC3)cc1OC2(C)C | 9.47 | 9.41
27 | CC1=CC[C@@H]2[C@@H](C1)c1c(O)cc(C(C)(C)C3CCCCCC3)cc1OC2(C)C | 9.03 | 9.66
28 | CC1=CC[C@@H]2[C@@H](C1)c1c(O)cc(C(C)(C)C)cc1OC2(C)C | 7.85 | 
29 | CCCCCCC1(c2cc(O)c3c(c2)OC(C)(C)[C@@H]2CC=C(C)C[C@@H]32)Sc2ccccc2S1 | 7.24 | 6.59
30 | CCCCCCC1(c2cc(O)c3c(c2)OC(C)(C)[C@@H]2CC=C(C)C[C@@H]32)SC(C)C(C)S1 (stereo partly specified) | 7.49 | 7.71
31 | CC1=CC[C@@H]2[C@@H](C1)c1c(O)cc(C(C)(C)CCCCC#N)cc1OC2(C)C | 8.76 | 8.96
32 | CC1=CC[C@@H]2[C@@H](C1)c1c(O)cc(-c3cccc4ccccc34)cc1OC2(C)C | 7.93 | 8.03
33 | CC1=CC[C@@H]2[C@@H](C1)c1c(O)cc(-c3ccc(C)cc3)cc1OC2(C)C | 7.02 | 7.14
34 | C=C(C)C1CCC(C)=C[C@H]1c1c(O)cc(C2(CCCCCC)CC2(Br)Br)cc1O (stereo partly specified) | 6.72 | 7.20
35 | C=C(C)C1CCC(C)=C[C@H]1c1c(O)cc(C2(CCCCCC)CC2)cc1O (stereo partly specified) | 7.23 | 7.00
36 | CCCCC(C)(C)c1cc(O)c2c(c1)OC(C)(C)[C@@H]1CC=C(C)C[C@@H]21 | 8.41 | 
37 | CC1=CC[C@@H]2[C@@H](C1)c1c(O)cc(Oc3ccccc3)cc1OC2(C)C | 6.53 | 7.63
38 | C=C(C)C1CCC(C)=C[C@H]1c1c(O)cc(C2(C#N)CCCCC2)cc1O (stereo partly specified) | 6.50 | 6.96
39 | CCCCCCC(=O)c1cc(O)c2c(c1)OC(C)(C)[C@@H]1CC=C(C)C[C@@H]21 | 7.66 | 7.08
40 | CC1=CC[C@@H]2[C@@H](C1)c1c(O)cc(C34CC5CC(CC(C5)C3)C4)cc1OC2(C)C | 8.17 | 7.28
41 | CCCCCCC1(c2cc(O)c3c(c2)OC(C)(C)[C@@H]2CC=C(C)C[C@@H]32)SCCS1 | 9.49 | 9.28
42 | CCCCCCCc1cc(O)c2c(c1)OC(C)(C)[C@@H]1CC=C(C)C[C@@H]21 | 7.66 | 
